Experimental data published in ChEMBL document CHEMBL1770088, “Orally bioavailable imidazoazepanes as calcitonin gene-related peptide (CGRP) receptor antagonists: discovery of MK-2918” (Bioorg Med Chem Lett, 2011).
In brackets after ≈: the same amount, converted by molar mass.

Tests used:
[1] = target: T1, Calcitonin gene-related peptide type 1 receptor (Homo sapiens, UniProt O60894+Q16602); test: Antagonist activity at CGRP receptor assessed as inhibition of CGRP-stimulated cAMP production by cell based assay; type: functional
T1 sequence (Q16602 whole entry, one chain of several): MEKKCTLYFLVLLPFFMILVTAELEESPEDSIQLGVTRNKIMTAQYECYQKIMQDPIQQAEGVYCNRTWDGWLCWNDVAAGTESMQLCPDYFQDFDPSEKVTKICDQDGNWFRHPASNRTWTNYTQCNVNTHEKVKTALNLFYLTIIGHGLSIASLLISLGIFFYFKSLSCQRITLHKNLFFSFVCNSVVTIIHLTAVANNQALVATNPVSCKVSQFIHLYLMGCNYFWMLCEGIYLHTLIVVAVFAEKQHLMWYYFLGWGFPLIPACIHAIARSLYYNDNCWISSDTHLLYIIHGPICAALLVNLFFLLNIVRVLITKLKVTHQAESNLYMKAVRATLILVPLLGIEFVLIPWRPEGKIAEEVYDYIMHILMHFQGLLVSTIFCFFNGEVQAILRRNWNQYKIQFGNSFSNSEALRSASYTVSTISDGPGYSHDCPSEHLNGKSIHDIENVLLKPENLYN

[2] = target: T1, Calcitonin gene-related peptide type 1 receptor; test: Displacement of [125I]-CGRP from human recombinant CGRP receptor
Homo sapiens = species on record: Homo sapiens; test: Ratio of IC50 for inhibition of [35S]-MK-499 binding to human ERG channel to IC50 for inhibition of cell based CGRP-stimulated cAMP production
[3] = Oral bioavailability in rat at 10 mg/kg, po administered as a suspension in 1% aqueous methylcellulose; type: ADME, organism-based; settings: in vivo
[4] = target: T1, Calcitonin gene-related peptide type 1 receptor; test: Antagonist activity at CGRP receptor assessed as inhibition of CGRP-stimulated cAMP production by cell based assay in presence of 50% human serum; type: functional
[5] = Oral bioavailability in rat at 10 mg/kg, po administered as a solution in 1:1 imwitor:tween; type: ADME, organism-based; settings: in vivo
[6] = Oral bioavailability in dog at 10 mg/kg, po; type: ADME, organism-based, Canis lupus familiaris; settings: in vivo
Canis familiaris = test: Oral bioavailability in dog assessed as N-((6S,9R)-6-(2,3-difluorophenyl)-3-(2-hydroxypropan-2-yl)-6,7,8,9-tetrahydro-5H-imidazo[1,2-a]azepin-9-yl)-2'-oxo-1',2'-dihydrospiro[piperidine-4,4'-pyrido[2,3-d][1,3]oxazine]-1-carboxamide at 10 mg/kg, po or iv normalized to AUC; type: ADME, organism-based, Canis lupus familiaris; settings: in vivo
[7] = Apparent permeability of compound; type: ADME; settings: not told
Rhesus monkey [8] = test: Oral bioavailability in rhesus monkey assessed as N-((6S,9R)-6-(2,3-difluorophenyl)-3-(2-hydroxypropan-2-yl)-6,7,8,9-tetrahydro-5H-imidazo[1,2-a]azepin-9-yl)-2'-oxo-1',2'-dihydrospiro[piperidine-4,4'-pyrido[2,3-d][1,3]oxazine]-1-carboxamide at 10 mg/kg, po or iv normalized to AUC; type: ADME, organism-based, Macaca mulatta; settings: in vivo
[9] = Aqueous solubility of the compound at pH 3; type: physicochemical; settings: buffer
Rattus norvegicus = test: Oral bioavailability in rat assessed as N-((6S,9R)-6-(2,3-difluorophenyl)-3-(2-hydroxypropan-2-yl)-6,7,8,9-tetrahydro-5H-imidazo[1,2-a]azepin-9-yl)-2'-oxo-1',2'-dihydrospiro[piperidine-4,4'-pyrido[2,3-d][1,3]oxazine]-1-carboxamide at 10 mg/kg, po or iv normalized to AUC; type: ADME, organism-based; settings: in vivo
[10] = Oral bioavailability in rhesus monkey at 10 mg/kg, po; type: ADME, organism-based, Macaca mulatta; settings: in vivo
Rhesus monkey [11] = test: Inhibition of capsaicin-induced dermal vasodilation in orally dosed rhesus monkey; type: functional, Macaca mulatta
[12] = Aqueous solubility of the compound at pH 7.4; settings: buffer

SMILES	IC50 [1] [nM]	Ki [2] [nM]	bioavailability [3] [%]	IC50 [4] [nM]	Ratio IC50 (Homo sapiens)	other results
O=C(N[C@@H]1CC[C@@H](c2cccc(F)c2F)Cn2c(CC(F)(F)F)cnc21)N1CCC2(CC1)C(=O)Nc1ncccc12	0.94	0.61	47	4	9300	–
O=C(N[C@@H]1CC[C@@H](c2cccc(F)c2F)Cn2c(CC(F)(F)F)nnc21)N1CCC2(CC1)C(=O)Nc1ncccc12	2.3	0.48	–	2.7	> 13000	bioavailability [5]: 6%
COCc1cnc2n1C[C@H](c1cccc(F)c1F)CC[C@H]2NC(=O)N1CCC2(CC1)C(=O)Nc1ncccc12	1.7	0.62	–	4.3	9500	bioavailability [5]: 21%
O=C(N[C@@H]1CC[C@@H](c2cccc(F)c2F)Cn2ccnc21)N1CCC(n2c(=O)[nH]c3ncccc32)CC1	6.7	3.1	–	19	–	–
O=C(N[C@@H]1CC[C@@H](c2cccc(F)c2F)Cn2c(C3(C(F)(F)F)CC3)cnc21)N1CCC2(CC1)C(=O)Nc1ncccc12	1.4	0.63	–	8.6	880	–
Cc1cn2c(n1)[C@H](NC(=O)N1CCC(n3c(=O)[nH]c4ncccc43)CC1)CC[C@@H](c1cccc(F)c1F)C2	8.7	4	–	28	–	–
O=C(N[C@@H]1CC[C@@H](c2cccc(F)c2F)Cn2cc(CO)nc21)N1CCC(n2c(=O)[nH]c3ncccc32)CC1	12	3.2	–	26	–	–
O=C(N[C@@H]1CC[C@@H](c2cccc(F)c2F)Cn2c(-c3nccs3)cnc21)N1CCC(n2c(=O)[nH]c3ncccc32)CC1	3.6	1.1	–	64	–	–
O=C(N[C@@H]1CC[C@@H](c2cccc(F)c2F)Cn2c(-c3ccccc3)cnc21)N1CCC(n2c(=O)[nH]c3ncccc32)CC1	2.6	1.1	–	34	–	–
CN(C)C(=O)c1cnc2n1C[C@H](c1cccc(F)c1F)CC[C@H]2NC(=O)N1CCC(n2c(=O)[nH]c3ncccc32)CC1	4.1	2.8	–	7.4	–	–
CNCCc1cnc2n1C[C@H](c1cccc(F)c1F)CC[C@H]2NC(=O)N1CCC(n2c(=O)[nH]c3ncccc32)CC1	12	5.7	–	15	–	–
O=C(N[C@@H]1CC[C@@H](c2cccc(F)c2F)Cn2c(C3CC3)nnc21)N1CCC(n2c(=O)[nH]c3ncccc32)CC1	1.6	1	2	2.4	–	Papp [7]: 4 ×10⁻⁶ cm/s
Cc1cnc2n1C[C@H](c1cccc(F)c1F)CC[C@H]2NC(=O)N1CCC(n2c(=O)[nH]c3ncccc32)CC1	4.1	2.2	–	12	–	–
O=C1Nc2ncccc2C2(CCN(C(=O)N[C@@H]3CC[C@@H](c4cccc(F)c4F)Cn4c(CC(F)(F)F)nnc43)CC2)O1	0.83	0.19	< 1	1.3	> 36000	–
O=C(N[C@@H]1CC[C@@H](c2cccc(F)c2F)Cn2c(CO)cnc21)N1CCC(n2c(=O)[nH]c3ncccc32)CC1	7.9	2.5	–	12	–	–
O=C(N[C@@H]1CC[C@@H](c2cccc(F)c2F)Cn2cc(CC(F)(F)F)nc21)N1CCC(n2c(=O)[nH]c3ncccc32)CC1	7.2	3.9	–	33	–	–
O=C(N[C@@H]1CC[C@@H](c2cccc(F)c2F)CN(CC(F)(F)F)C1=O)N1CCC(n2c(=O)[nH]c3ncccc32)CC1 [TELCAGEPANT]	–	–	–	–	–	Papp [7]: 21 ×10⁻⁶ cm/s; solubility [12]: 30 µg/mL (≈ 53 µM)
CC(C)(O)c1cnc2n1C[C@H](c1cccc(F)c1F)CC[C@H]2NC(=O)N1CCC2(CC1)OC(=O)Nc1ncccc12	0.86	0.29	3	1.5	23000	EC90 (Rhesus monkey [11]): 330 nM

More lines, main results first:

IC50 [1] [nM]	Ki [2] [nM]	bioavailability [3] [%]	IC50 [4] [nM]	SMILES	Ratio IC50 (Homo sapiens)	other results
0.24	0.05	16	0.63	COC(C)(C)c1cnc2n1C[C@H](c1cccc(F)c1F)CC[C@H]2NC(=O)N1CCC2(CC1)OC(=O)Nc1ncccc12	32000	bioavailability [6]: 10%; F (Canis familiaris): 14%; Papp [7]: 24 ×10⁻⁶ cm/s; F (Rhesus monkey [8]): 29%; solubility [9]: 1100 µg/mL (≈ 1890 µM); F (Rattus norvegicus): 26%; bioavailability [10]: 5%
0.61	0.14	15	1.7	COCc1cnc2n1C[C@H](c1cccc(F)c1F)CC[C@H]2NC(=O)N1CCC2(CC1)OC(=O)Nc1ncccc12	8900	–
0.37	0.14	35	2.6	O=C(N[C@@H]1CC[C@@H](c2cccc(F)c2F)Cn2c(CC(F)(F)F)cnc21)N1CCC(n2c(=O)[nH]c3ncccc32)CC1	–	Papp [7]: 24 ×10⁻⁶ cm/s
0.31	0.04	–	0.61	COC(C)(C)c1cnc2n1C[C@H](c1cccc(F)c1F)CC[C@H]2NC(=O)N1CCC(n2c(=O)[nH]c3ncccc32)CC1	–	–
0.41	0.07	33	2	O=C1Nc2ncccc2C2(CCN(C(=O)N[C@@H]3CC[C@@H](c4cccc(F)c4F)Cn4c(CC(F)(F)F)cnc43)CC2)O1	–	bioavailability [6]: 28%; bioavailability [10]: 17%; EC90 (Rhesus monkey [11]): 1000 nM
0.62	0.69	–	3.2	CC(C)c1cnc2n1C[C@H](c1cccc(F)c1F)CC[C@H]2NC(=O)N1CCC(n2c(=O)[nH]c3ncccc32)CC1	–	–
0.63	0.38	–	1.9	COCc1cnc2n1C[C@H](c1cccc(F)c1F)CC[C@H]2NC(=O)N1CCC(n2c(=O)[nH]c3ncccc32)CC1	–	–
0.25	0.039	–	0.42	CCC(CC)(OC)c1cnc2n1C[C@H](c1cccc(F)c1F)CC[C@H]2NC(=O)N1CCC2(CC1)OC(=O)Nc1ncccc12	3200	–
0.21	0.036	8	0.76	CC1(c2cnc3n2C[C@H](c2cccc(F)c2F)CC[C@H]3NC(=O)N2CCC3(CC2)OC(=O)Nc2ncccc23)CCCO1 (some centres not stated)	17000	–
0.82	0.4	–	1.4	COC(C)(C)c1cnc2n1C[C@H](c1cccc(F)c1F)CC[C@H]2NC(=O)N1CCC2(CC1)C(=O)Nc1ncccc12	9700	bioavailability [5]: 5%
0.65	0.16	–	13	CC(C)(OCC(F)(F)F)c1cnc2n1C[C@H](c1cccc(F)c1F)CC[C@H]2NC(=O)N1CCC2(CC1)OC(=O)Nc1ncccc12	6100	–
0.32	0.05	–	2.9	CCOC(C)(C)c1cnc2n1C[C@H](c1cccc(F)c1F)CC[C@H]2NC(=O)N1CCC2(CC1)OC(=O)Nc1ncccc12	23000	–
